From patent publication US7507739B2, “6-[(substituted)phenyl]triazolopyrimidines as anticancer agents” (Wyeth, priority 2003, dated 2009)
Read-outs that look alike come from different tables or passages of the source.

Legend:
[1] = tested on: KB-8-5 cells; test: MTS cytotoxicity test with KB-8-5 cells (moderate P-glycoprotein); format: cell-based, human; conditions: for IC50: Homo sapiens, read-out: IC50 KB 8.5; for Ratio 8.5/KB: IC50 on KB 8.5 cells/IC50 on KB cells
Excerpt: (§1) Human cancer cell lines, unless otherwise noted, are obtained from the American Type Culture Collection (Rockville, Md.). The following drug-sensitive parental cell lines, and their derived drug-resistant counterparts, are obtained from the originators as listed: (a) S1 (parental line from a subclone of human colon carcinoma line LS174T) and derived S1-M1-3.2 (herein called S1-M1) which expresses the MXR drug transporter protein, are provided by Dr. L. Greenberger, Wyeth Research (Rabindran, S. K., He, H., Singh, M., Brown, E., Collins, K. I., Annable, T., and Greenberger, L. M. Reversal of a novel multidrug resistance mechanism in human colon carcinoma cells by fumitremorgin C. Cancer Res., 58:5850-5858,1998); (b) parental HL-60 human promyelocytic leukemia line and derived HL-60/ADR, which expresses the MRP1 drug transporter protein, are provided by Dr. M. Center, University of Kansas (McGrath, T., and Center, M. S. Adriamycin resistance in HL60 cells in the absence of detectable P-glycoprotein. Biochem. Biophys. […] J. Biol. Chem., 261: 7762-7770,1986) via Dr. L. Greenberger, Wyeth Research.
(§2) The assay, which is sold in kit form by Promega (Madison, Wis.; CellTiter 96 AQueous Non-Radioactive Cell Proliferation Assay), is based on the conversion by viable cells, but not by dead cells, of the tetrazolium salt, MTS (3-(4,5-dimethylthiazol-2-yl)-5-(3-carboxymethoxyphenyl)-2-(4-sulphophenyl)-2H-tetrazolium, inner salt), into a water-soluble colored formazan which is detected by spectrophotometry. Compounds are tested at nine concentrations, in order to determine IC50 values. For the test procedure, cells are harvested by trypsinization (or, in the case of non-adherent cells, by simple resuspension), washed, counted and distributed to wells of 96-well flat-bottom microtiter plates at 1000 cells per well in 200 μL of medium. In addition, one row of wells on a separate plate received cells as above (“time 0” plate). All plates are incubated at 37° in humidified 5% CO2 in air for about 24 hr.
(§3) On day 2, compounds for test are diluted and added to wells. Compounds are dissolved in DMSO at 10 mg/mL. For each compound, nine serial 2-fold dilutions are prepared in DMSO. Ten μL of each dilution in DMSO is transferred to 100 μL of medium, mixed well, and then 5 μL of this dilution is transferred in quadruplicate to wells containing cells. […] Plates are returned to the incubator for three days. At the time of drug addition to the experimental plates, the MTS assay is run on the “time 0” plate. This produced the “time 0 MTS value” which is related to the number of viable cells per well at the time of drug addition.
(§4) After three days of culture with test compounds (day 5 overall), the MTS assay is done on all wells of the experimental plates. The absorbance values of the quadruplicate sample wells are averaged and divided by the average of the “time 0” values. […] The nine values for each compound are plotted against concentration, and the concentration that produced a relative color yield half way between the maximum and minimum is taken as the IC50 value.
The KB lines express different amounts of the P-glycoprotein (MDR1) membrane pump which produces resistance to the action of many cytotoxic compounds, including paclitaxel and vincristine. The parental KB line expresses no P-glycoprotein, KB-8-5 expresses moderate levels of the protein, and KB-V1 expresses very high levels.

[2] = tested on: S1-M1 cells; test: MTS cytotoxicity test with S1-M1 cells (MXR); format: cell-based, human; conditions: for IC50: Homo sapiens, read-out: IC50 S1-M1; for Ratio: IC50 on S1-M1 cells/IC50 on S1 cells
Excerpt: as §1, §2, §3, §4
S1-M1 cells overexpress the MXR transporter which mediates resistance to some chemotherapeutics (Gottesman, M. M., Fojo, T., and Bates, S. E. Miltidrug resistance in cancer: role of ATP-dependent transporters. Nature Rev. Cancer, 2: 48-58, 2002). The IC50 values of representative examples of this invention, as well as reference compounds, on S1-M1 are compared to values on the sensitive parental S1 line.

[3] = tested on: microtubules; test: Competitive binding test, [3H]paclitaxel; design: species or system bovine; conditions: [3H]paclitaxel 2.1 μM, competitor 20 μM (5 μM for unlabeled paclitaxel)
Method: Medium is RPMI-1640 with L-glutamine, supplemented with 10% heat-inactivated fetal calf serum, 100 units/ml penicillin, and 100 μg/ml streptomycin (Gibco, Grand Island, N.Y.). Microtubule-associated protein (MAP)-rich tubulin, containing about 70% tubulin and 30% MAPs (#ML113), and highly purified tubulin (>99% pure, #TL238), both from bovine brain, are obtained from Cytoskeleton, Inc., Denver, Colo. PEM buffer (80 mM piperazine-N,N′-bis[2-ethanesulfonic acid], pH 6.9, 1 mM ethylene glycol-bis(β-aminoethyl ether)-N,N,N′,N′-tetraacetic acid, 1 mM magnesium chloride) and guanosine 5′-triphosphate (GTP) are also obtained from Cytoskeleton. [3H]paclitaxel, specific activity 14.7 Ci/mmol, is purchased from Moravek Biochemicals (Brea, Calif.). [^3H]vinblastine, specific activity 9.60 Ci/mmol and MicroSpin G-50 columns are obtained from Amersham Biosciences (Piscataway, N.J.). […] Other reagents are obtained from Sigma (St. Louis, Mo.).
The binding of examples of this invention to highly purified tubulin is studied by competitive inhibition methods. […] To study possible competition at the taxane site, on the other hand, polymerized tubulin (microtubules) is used because paclitaxel binds preferentially to microtubules.
For competition with [^3H]paclitaxel, highly purified tubulin is dissolved in PEM buffer containing 0.75 M glutamate and 25 μM dideoxy-GTP; final protein concentration is 0.25 to 0.35 mg/mL (2.5 to 3.5 μM). These conditions foster the rapid formation of short, stable microtubule polymers (Hamel, E., del Campo, A. A., and Lin, C. M. Stability of tubulin polymers formed with dideoxyguanosine nucleotides in the presence and absence of microtubule-associated proteins. J. Biol. Chem., 259: 2501-2508, 1984). This solution is incubated for 30 min at 37° to allow microtubules to form. Then [^3H]paclitaxel (final concentration of 2.1 μM, 1.2 Ci/mmol) and competitor (final concentration of 20 μM, except 5 μM for unlabeled paclitaxel) are added to aliquots of the polymerized tubulin solution and incubation at 37° is continued for another 30 min. […] The reactions are then centrifuged at top speed in an Eppendorf 5415C microfuge for 20 min at room temperature in order to pellet the microtubule protein. Triplicate aliquots of each supernatant are mixed with scintillation fluid and counted in a liquid scintillation spectrometer. From the amount of radioactivity in the supernatants and the measured total starting radioactivity, the amount of [^3H]paclitaxel bound to pelleted microtubule protein is calculated. The ability of each competitor to inhibit radioligand binding to pelleted protein is expressed as a percent of controls without any competitor.

## C[C@H](Nc1c(-c2c(F)cc(OCCCN(C)C)cc2F)c(Cl)nc2ncnn12)C(F)(F)F.Cl [Example 1a, 5-chloro-6-{4-[3-(dimethylamino)propoxy]-2,6-difluorophenyl}-N-[(1S)-2,2,2-trifluoro-1-methylethyl][1,2,4]triazolo[1,5-a]pyrimidin-7-amine hydrogen chloride Salt]
[1]; KB-8-5 cells, MTS
  IC50: 62 nM
[1]
  Ratio 8.5/KB: 2.2
[2]; S1-M1 cells, MTS
  IC50: 75 nM
[2]
  Ratio: 1.0
[3]
  [3H]Paclitaxel binding, percent of control without competitor, Mean: 108%

## CNCCCOc1cc(F)c(-c2c(Cl)nc3ncnn3c2N[C@@H](C)C(F)(F)F)c(F)c1.Cl [Example 2a, 5-Chloro-6-{2,6-difluoro-4-[3-(methylamino)propoxy]phenyl}-N-[(1S)-2,2,2-trifluoro-1-methylethyl][1,2,4]triazolo[1,5-a]pyrimidin-7-amine hydrogen chloride]
[1]
  IC50: 64 nM
[2]
  IC50: 69 nM
  Ratio: 1.0
[3]
  [3H]Paclitaxel binding, percent of control without competitor, Mean: 104%

## CNCCCOc1cc(F)c(-c2c(Cl)nc3ncnn3c2NCC(F)(F)F)c(F)c1.Cl [Example 3a, 5-Chloro-6-{2,6-difluoro-4-[3-(methylamino)propoxy]phenyl}-N-(2,2,2-trifluoroethyl)[1,2,4]triazolo[1,5-a]pyrimidin-7-amine hydrogen chloride Salt]
[1]; KB-8-5 cells, MTS
  IC50: 69 nM
[1]
  Ratio 8.5/KB: 3.8
[2]; S1-M1 cells, MTS
  IC50: 71 nM
[2]
  Ratio: 1.2
[3]
  [3H]Paclitaxel binding, percent of control without competitor, Mean: 105%

## CN(C)CCCOc1cc(F)c(-c2c(Cl)nc3ncnn3c2NCC(F)(F)F)c(F)c1.Cl [Example 4a, 5-Chloro-6-{4-[3-(dimethylamino)propoxy]-2,6-difluorophenyl}-N-(2,2,2-trifluoroethyl)[1,2,4]triazolo[1,5-a]pyrimidin-7-amine Hydrogen chloride Salt]
[1]; KB-8-5 cells, MTS
  IC50: 58 nM
[2]; S1-M1 cells, MTS
  IC50: 73 nM
[2]
  Ratio: 1.0
[3]
  [3H]Paclitaxel binding, percent of control without competitor, Mean: 104%

## C[C@H](Nc1c(-c2c(F)cc(OCCCO)cc2F)c(Cl)nc2ncnn12)C(F)(F)F [Example 20, 3-[4-(5-Chloro-7-{[(1S)-2,2,2-trifluoro-1-methylethyl]amino}[1,2,4]triazolo[1,5-a]pyrimidin-6-yl)-3,5-difluorophenoxy]propan-1-ol]
[1]; KB-8-5 cells, MTS
  IC50: 66 nM
[2]; S1-M1 cells, MTS
  IC50: 91 nM
[2]
  Ratio: 1.1
[3]
  [3H]Paclitaxel binding, percent of control without competitor, Mean: 104%

## C[C@H](Nc1c(-c2c(F)cc(OCCCN(C)C)cc2F)c(Br)nc2ncnn12)C(F)(F)F [Example 25, 5-Bromo-6-{4-[3-(dimethylamino)propoxy]-2,6-difluorophenyl}-N-[(1S)-2,2,2-trifluoro-1-methylethyl][1,2,4]triazolo[1,5-a]pyrimidin-7-amine]
[1]; KB-8-5 cells, MTS
  IC50: 67 nM
[2]; S1-M1 cells, MTS
  IC50: 84 nM
[2]
  Ratio: 0.80
[3]
  [3H]Paclitaxel binding, percent of control without competitor, Mean: 99%

## OCCCOc1cc(F)c(-c2c(Cl)nc3ncnn3c2C2CCCCCC2)c(F)c1 [Example 30, 3-[4-(5-Chloro-7-cycloheptyl[1,2,4]triazolo[1,5-a]pyrimidin-6-yl)-3,5-difluorophenoxy]propan-1-ol]
[1]; KB-8-5 cells, MTS
  IC50: 127 nM
[2]; S1-M1 cells, MTS
  IC50: 78 nM
[2]
  Ratio: 1.2
[3]
  [3H]Paclitaxel binding, percent of control without competitor, Mean: 91%

## CNCCCOc1cc(F)c(-c2c(Cl)nc3ncnn3c2C2CCCCCC2)c(F)c1.O=C(O)C(F)(F)F [Example 32, 3-[4-(5-Chloro-7-cycloheptyl[1,2,4]triazolo[1,5-a]pyrimidin-6-yl)-3,5-difluorophenoxy]-N-methylpropan-1-amine trifluoroacetic acid salt]
[1]; KB-8-5 cells, MTS
  IC50: 15 nM
[2]; S1-M1 cells, MTS
  IC50: 9 nM
[2]
  Ratio: 0.80
[3]
  [3H]Paclitaxel binding, percent of control without competitor, Mean: 93%

## CC(=O)O[C@H]1C(=O)[C@@]2(C)[C@H]([C@H](OC(=O)c3ccccc3)[C@]3(O)C[C@H](OC(=O)[C@H](O)[C@@H](NC(=O)c4ccccc4)c4ccccc4)C(C)=C1C3(C)C)[C@]1(OC(C)=O)CO[C@@H]1C[C@@H]2O [Paclitaxel, reference compound]
[1]; KB-8-5 cells, MTS
  IC50: 56 nM
[1]
  Ratio 8.5/KB: 19
[2]; S1-M1 cells, MTS
  IC50: 4.4 nM
[2]
  Ratio: 0.54
[3]
  [3H]Paclitaxel binding, percent of control without competitor, Mean: 35%

## CC[C@]1(O)C[C@H]2CN(CCc3c([nH]c4ccccc34)[C@@](C(=O)OC)(c3cc4c(cc3OC)N(C=O)[C@H]3[C@@](O)(C(=O)OC)[C@H](OC(C)=O)[C@]5(CC)C=CCN6CC[C@]43[C@@H]65)C2)C1 [Vincristine, reference compound]
[1]; KB-8-5 cells, MTS
  IC50: 72 nM
[1]
  Ratio 8.5/KB: 11
[2]; S1-M1 cells, MTS
  IC50: 4.6 nM
[2]
  Ratio: 0.82
[3]
  [3H]Paclitaxel binding, percent of control without competitor, Mean: 22%
